In test [1] the target is T1, HCV polymerase (NS5B) type 1a (Hepatitis C virus genotype 1a, UniProt P26664).
T1 construct: made in house; host or cells: Escherichia coli (by the 'similar method' of the 1b enzyme)
Put plainly: Assay of enzyme (HCV polymerase) inhibitory activity, type 1a enzyme. Particulars: HCV polymerase inhibitory activity IC50, 1a, type 1a enzyme. Format: biochemical, HCV type 1a (cloned from the blood of patients). The procedure, abridged: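 Reactions ran 60 min at 25° C in 20 mM Tris-HCl pH 7.5, 5 mM MgCl2, 50 mM NaCl, holding genotype 1a NS5B (1.5 μg/ml, Δ47 C-terminus, 6His), substrate RNA 5 μg/ml, UTP 2 μM with tritiated UTP and other NTPs 50 μM. IC50 derived from incorporated radiolabel in filter-trapped RNA relative to uninhibited reaction.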

Test [2] addresses T2, HCV polymerase (NS5B) type 1b (Hepatitis C virus genotype 1b, UniProt P26663).
T2 construct: a region encoding NS5B (J Virol 1991 March, 65(3), 1105-13, 544 amino acids after deletion of 47 amino acids on the C-terminal); 6xHis (C); made in house; host or cells: Escherichia coli
Put plainly: Assay of enzyme (HCV polymerase) inhibitory activity, type 1b enzyme. The class given is biochemical, HCV BK strain (type 1b). The conditions noted are these: HCV polymerase inhibitory activity IC50, 1b, type 1b enzyme. The procedure, abridged: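 IC50 derived from [3H]UTP incorporation into TCA-insoluble RNA, compared with and without test compound. Reaction (25 °C, 60 min, Tris pH 7.5, 5 mM MgCl2): E. coli-expressed 1b NS5B Δ47 with His tag at 0.5 μg/ml, 5 μg/ml run-off substrate RNA, ATP/GTP/CTP 50 μM, UTP 2 μM.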

Bounds are passed on as bounds.

As for `CCC(F)(F)c1ccc(CNC(=O)[C@H]2CN(c3cnc4c(Cl)cccc4n3)CCN2S(=O)(=O)c2ccc(OC(F)(F)F)cc2)cc1` [Example 741, (R)-4-(5-chloro-quinoxalin-2-yl)-1-(4-trifluoromethoxy-benzenesulfonyl)-piperazine-2-carboxylic acid 4-(1,1-difluoro-propyl)-benzylamide], the half-inhibitory concentration (IC50) in test [1] was 100 to 1000 nM; in test [2], less than 100 nM.
Taken in the same sequence, the figures for `CCC(F)(F)c1ccc(CNC(=O)[C@H]2CN(c3cnc4cccc(Cl)c4n3)CCN2S(=O)(=O)c2ccc(OC(F)(F)F)cc2)cc1` [Example 742, (R)-4-(8-chloro-quinoxalin-2-yl)-1-(4-trifluoromethoxy-benzenesulfonyl)-piperazine-2-carboxylic acid 4-(1,1-difluoro-propyl)-benzylamide] were 100 to 1000 nM and less than 100 nM.
Consider `CCC(F)(F)c1ccc(CNC(=O)[C@H]2CN(c3cnc4cnccc4n3)CCN2S(=O)(=O)c2ccc(N3CCCC3)cc2)cc1` [Example 743, (R)-4-pyrido[3,4-b]pyrazin-2-yl-1-(4-pyrrolidin-1-yl-benzenesulfonyl)-piperazine-2-carboxylic acid 4-(1,1-difluoro-propyl)-benzylamide], for which the IC50 in test [1] and in test [2] was less than 100 nM in each case.
For `CCC(F)(F)c1ccc(CNC(=O)[C@H]2CN(c3cnc4cncnc4n3)CCN2S(=O)(=O)c2ccc([C@H]3CC[C@H](CC(=O)O)CC3)cc2)cc1` [Example 744, trans-[4-(4-{(R)-2-[4-(1,1-difluoro-propyl)-benzylcarbamoyl]-4-pteridin-7-yl-piperazine-1-sulfonyl}-phenyl)-cyclohexyl]-acetic acid], the IC50 in test [1] and in test [2] was less than 100 nM in each case.
Consider `O=C(NCc1ccc(OC(F)(F)F)cc1)[C@H]1CN(c2cnc3cnccc3n2)CCN1S(=O)(=O)c1ccc(OC(F)(F)F)cc1` [Example 745, (R)-4-pyrido[3,4-b]pyrazin-2-yl-1-(4-trifluoromethoxy-benzenesulfonyl)-piperazine-2-carboxylic acid 4-trifluoromethoxy-benzylamide], for which the IC50 in test [1] and in test [2] was less than 100 nM in each case.
Regarding `CCC(F)(F)c1ccc(CNC(=O)[C@H]2CN(c3cnc4cnccc4n3)CCN2S(=O)(=O)c2ccc(N3CCOCC3)cc2)cc1` [Example 746, (R)-1-(4-morpholin-4-yl-benzenesulfonyl)-4-pyrido[3,4-b]pyrazin-2-yl-piperazine-2-carboxylic acid 4-(1,1-difluoro-propyl)-benzylamide], the IC50 in test [1] and in test [2] was less than 100 nM in each case.
Turning to `CCC(F)(F)c1ccc(CNC(=O)[C@H]2CN(c3cnc4cncnc4n3)CCN2S(=O)(=O)c2ccc(OC)cc2)cc1` [Example 747, (R)-1-(4-methoxy-benzenesulfonyl)-4-pteridin-7-yl-piperazine-2-carboxylic acid 4-(1,1-difluoro-propyl)-benzylamide], the IC50 in test [1] and in test [2] was less than 100 nM each time.
With `CCC(F)(F)c1ccc(CNC(=O)[C@H]2CN(c3ccc4nccnc4n3)CCN2S(=O)(=O)c2ccc(OC(F)(F)F)cc2)cc1` [Example 748, (R)-4-pyrido[2,3-b]pyrazin-6-yl-1-(4-trifluoromethoxy-benzenesulfonyl)-piperazine-2-carboxylic acid 4-(1,1-difluoro-propyl)-benzylamide], the IC50 in test [1] and in test [2] was less than 100 nM throughout.
Regarding `O=C(NCc1ccc(OC(F)(F)F)cc1)[C@H]1CN(c2cnc3nccnc3n2)CCN1S(=O)(=O)c1ccc(OC(F)(F)F)cc1` [Example 749, (R)-4-pyrazino[2,3-b]pyrazin-2-yl-1-(4-trifluoromethoxy-benzenesulfonyl)-piperazine-2-carboxylic acid 4-trifluoromethoxy-benzylamide], the IC50 in test [1] and in test [2] was less than 100 nM each time.
With `O=C(NCc1ccc(OC(F)(F)F)cc1)[C@H]1CN(c2ccn3ncnc3n2)CCN1S(=O)(=O)c1ccc(OC(F)(F)F)cc1` [Example 750, (R)-4-[1,2,4]triazolo[1,5-a]pyrimidin-5-yl-1-(4-trifluoromethoxy-benzenesulfonyl)-piperazine-2-carboxylic acid 4-trifluoromethoxy-benzylamide], the 50% inhibitory concentration (IC50) in test [1] and in test [2] was less than 100 nM throughout.
As for `CCC(F)(F)c1ccc(CNC(=O)[C@H]2CN(c3cnc4cnccc4n3)CCN2S(=O)(=O)c2ccc(N3CCCC3=O)cc2)cc1` [Example 751, (R)-1-[4-(2-oxo-pyrrolidin-1-yl)-benzenesulfonyl]-4-pyrido[3,4-b]pyrazin-2-yl-piperazine-2-carboxylic acid 4-(1,1-difluoro-propyl)-benzylamide], the IC50 in test [1] and in test [2] was less than 100 nM throughout.
In the case of `O=C(NCc1ccc(OC(F)(F)F)cc1)[C@H]1CN(c2cnc3cnccc3n2)CCN1S(=O)(=O)c1ccc(Cl)cc1` [Example 752, (R)-1-(4-chloro-benzenesulfonyl)-4-pyrido[3,4-b]pyrazin-2-yl-piperazine-2-carboxylic acid 4-trifluoromethoxy-benzylamide], the 50% inhibitory concentration (IC50) in test [1] and in test [2] was less than 100 nM each time.
In the case of `CCC(F)(F)c1ccc(CNC(=O)[C@H]2CN(c3cnc4cncnc4n3)CCN2S(=O)(=O)c2ccc(-c3cccc(C(=O)O)c3)cc2)cc1` [Example 753, 4′-{(R)-2-[4-(1,1-difluoro-propyl)-benzylcarbamoyl]-4-pteridin-7-yl-piperazine-1-sulfonyl}-biphenyl-3-carboxylic acid], the IC50 in test [1] and in test [2] was less than 100 nM in each case.
For the compound `O=C(NCc1ccc(OC(F)(F)F)cc1)[C@H]1CN(c2cnc3cnccc3n2)CCN1S(=O)(=O)c1ccc([N+](=O)[O-])cc1` [Example 754, (R)-1-(4-nitro-benzenesulfonyl)-4-pyrido[3,4-b]pyrazin-2-yl-piperazine-2-carboxylic acid 4-trifluoromethoxy-benzylamide], the IC50 in test [1] and in test [2] was less than 100 nM in each case.
With `O=C(NCc1ccc(OC(F)(F)F)cc1)[C@H]1CN(c2cnc3cnccc3n2)CCN1S(=O)(=O)c1ccc(N2CCCC2)cc1` [Example 755, (R)-4-pyrido[3,4-b]pyrazin-2-yl-1-(4-pyrrolidin-1-yl-benzenesulfonyl)-piperazine-2-carboxylic acid 4-trifluoromethoxy-benzylamide], the IC50 in test [1] and in test [2] was less than 100 nM throughout.
Take `CCC(F)(F)c1ccc(CNC(=O)[C@H]2CN(c3nc4ccncc4[nH]3)CCN2S(=O)(=O)c2ccc(OC(F)(F)F)cc2)cc1` [Example 756, (R)-4-(3H-imidazo[4,5-c]pyridin-2-yl)-1-(4-trifluoromethoxy-benzenesulfonyl)-piperazine-2-carboxylic acid 4-(1,1-difluoro-propyl)-benzylamide]: the IC50 in test [1] and in test [2] was less than 100 nM each time.
As to `O=C(NCc1ccc(OC(F)(F)F)cc1)[C@H]1CN(c2cnc3cnccc3n2)CCN1S(=O)(=O)c1ccc(C(F)(F)F)cc1` [Example 757, (R)-4-pyrido[3,4-b]pyrazin-2-yl-1-(4-trifluoromethyl-benzenesulfonyl)-piperazine-2-carboxylic acid 4-trifluoromethoxy-benzylamide], the IC50 in test [1] and in test [2] was less than 100 nM throughout.

For orientation: IC50 means the concentration that inhibits the measured activity by half. A lower IC50 goes with greater potency in that assay.

For the origin of these results see patent US8017612B2, “Piperazine compound and use thereof as a HCV polymerase inhibitor” (priority 2006, dated 2011).
